Source: article PMC8484140 (Targeted Oncology, 2021)

Assay: Safety and DLT evaluation
Type: in vivo, human
[1] = DLT observation stage, 5 mg group
[2] = Stage I, 3 mg/week monotherapy, n=4
[3] = Stage I, 5 mg/week monotherapy, n=12

Nc1ccccc1NC(=O)c1ccc(CNC(=O)OCc2cccnc2)cc1 [Entinostat]
four: Cases of CTCAE grade 3 AE (Stage I, 5 mg/week group)
no CTCAE grade 3 AE occurred: CTCAE grade 3 AE (Stage I, 3 mg/week group)
3 (75) No. (%): Leukopenia, entinostat-related AE of all grades [2] | Neutropenia, entinostat-related AE of all grades [2]
0 No. (%): AKP elevation, entinostat-related AE of all grades [2] | ALT elevation, entinostat-related AE of all grades [2] | AST elevation, entinostat-related AE of all grades [2] | Abdominal pain, entinostat-related AE of all grades [2] | Back pain, entinostat-related AE of all grades [2] | Chest pain, entinostat-related AE of all grades [2] | Creatine increase, entinostat-related AE of all grades [2] | Creatinine phosphokinase increase, entinostat-related AE of all grades [2] | Debilitation, entinostat-related AE of all grades [2] | Diarrhea, entinostat-related AE of all grades [2] | Fatigue, entinostat-related AE of all grades [2] | Flatulence, entinostat-related AE of all grades [2] | Headache, entinostat-related AE of all grades [2] | Hypoalbuminemia, entinostat-related AE of all grades [2] | Hypocalcemia, entinostat-related AE of all grades [2] | Hypokalemia, entinostat-related AE of all grades [2] | Hypoproteinemia, entinostat-related AE of all grades [2] | LDH increase, entinostat-related AE of all grades [2] | Limb pain, entinostat-related AE of all grades [2] | Nausea, entinostat-related AE of all grades [2] | Palpitation, entinostat-related AE of all grades [2] | Serum Ca^2+ decrease, entinostat-related AE of all grades [2] | Serum Na+ decrease, entinostat-related AE of all grades [2] | Serum albumin decrease, entinostat-related AE of all grades [2] | Serum phosphate decrease, entinostat-related AE of all grades [2] | Serum urea increase, entinostat-related AE of all grades [2] | Thrombocytopenia, entinostat-related AE of all grades [2] | Γ-GT elevation, entinostat-related AE of all grades [2] | α-HBDH elevation, entinostat-related AE of all grades [2] | Anemia, entinostat-related AE of all grades [3] | Creatine increase, entinostat-related AE of all grades [3] | Creatinine phosphokinase increase, entinostat-related AE of all grades [3] | Diarrhea, entinostat-related AE of all grades [3] | Hypoalbuminemia, entinostat-related AE of all grades [3] | Hypocalcemia, entinostat-related AE of all grades [3] | Hypokalemia, entinostat-related AE of all grades [3] | Hypoproteinemia, entinostat-related AE of all grades [3] | LDH increase, entinostat-related AE of all grades [3] | Limb pain, entinostat-related AE of all grades [3] | Serum Ca^2+ decrease, entinostat-related AE of all grades [3] | Serum Na+ decrease, entinostat-related AE of all grades [3] | Serum albumin decrease, entinostat-related AE of all grades [3] | Serum phosphate decrease, entinostat-related AE of all grades [3] | Serum urea increase, entinostat-related AE of all grades [3]
one: Suspicious DLT (G3 ventricular tachycardia) [1]
3 (25) No. (%): Back pain, entinostat-related AE of all grades [3] | Headache, entinostat-related AE of all grades [3]
33.3%: Grade 3/4 AEs (DLT observation stage, 7 mg group)
well tolerated at all doses: Tolerability (3, 5, 7 mg/week)
2 (50) No. (%): Anemia, entinostat-related AE of all grades [2]
7 (58.3) No. (%): Leukopenia, entinostat-related AE of all grades [3]
16.7%: Grade 3/4 AEs [1]
4(33.3) No. (%): Neutropenia, entinostat-related AE of all grades [3]
2 (16.7) No. (%): AKP elevation, entinostat-related AE of all grades [3] | ALT elevation, entinostat-related AE of all grades [3] | AST elevation, entinostat-related AE of all grades [3] | Abdominal pain, entinostat-related AE of all grades [3] | Chest pain, entinostat-related AE of all grades [3] | Debilitation, entinostat-related AE of all grades [3] | Fatigue, entinostat-related AE of all grades [3] | Flatulence, entinostat-related AE of all grades [3] | Palpitation, entinostat-related AE of all grades [3]
